Measured values taken from patent publication US10351856B2, “Ribonucleic acid aptamer having inhibitory effect on non-small cell lung cancer and pharmaceutical composition comprising same” (BIOPHARMAGEN CORP., FANGZHOU SUZHOU, priority 2016, dated 2019).
Several values for one entry are separate records, joined by “and”; a condition that tells them apart may be missing. Equal values may be shown once. Entries after “also recorded” stand apart in the source; their conditions may differ.

B1: RA16: ribonucleic acid aptamer of SEQ ID NO: 1, prepared by in vitro transcription, binds human non-small cell lung cancer (nucleic acid)
chain: GGGAGAGAACAAUGACCUGCGGUGCCAAGCCGUCGGGUUAUGUUGAUCUCCACAAGGACGAGUGCAUUGCAUCACGUCAGUAG
modifications: listed as RNA, chemistry not fully specified
B2: SCAP: nucleic acid obtained by randomly shuffling the sequence of RA16, SEQ ID NO: 2, control (nucleic acid)
chain: GGGAGAGAACAAUGACCUGUUGCAAGCGCGUCGGUAAUUCGCGCACAUGGCAGGCUUCUGAGUGCAUUGCAUCACGUCAGUAG
modifications: listed as RNA, chemistry not given here

How the values were obtained:
[1] = tested on: human non-small cell lung cancer H460 transplanted tumor; experiment: RA16-EPI adduct or epirubicin on tumor growth in H460 subcutaneous tumor-bearing mice; format: in vivo; conditions: 3 times, day 16
Procedure: In order to clarify the effect of the nucleic acid aptamer RA16-EPI adduct on the growth of human non-small cell lung cancer solid tumors, the inventors used model mice that were injected with human non-small cell lung cancer H460 cells and constructed with a subcutaneous tumor as experimental subjects (initial mean tumor volume was 200-300 mm^3). They were randomly divided into 6 groups, each of which had 5 tumor-bearing mice. One group served as a negative control group (0.1 ml of normal saline was injected intravenously on the 0th, 7th, and 14th days respectively); and the other 5 groups served as treatment groups (different doses of drugs were given every week, and the administration manners and doses are shown in Table 2.). Every 2 days, the tumor diameter of the tumor-bearing mice was measured, the tumor volume was calculated, and the tumor growth curves were drawn (FIG. 5). On the 16th day, the tumor was extracted, the tumor was weighed, and the tumor growth inhibition rate was calculated.

[2] = tested on: human cervical cancer Hela cells; experiment: CCK-8 relative viability / proliferation of Hela cells; format: cell-based; conditions: CCK-8, 48 h, 300 nM or 0-400 nM
Procedure: (§1) In order to clarify the effect of the nucleic acid aptamer RA16 on the proliferation of human non-small cell lung cancer cell lines, the inventors used the CCK-8 method (CCK-8 kit purchased from Dojindo Molecular Technologies, Inc.) to detect the relative viability of human non-small cell lung cancer cell line H460 (ATCC) and other tumor cells (human cervical cancer Hela cells) (the initial cell concentration was 2×10^4 cells/ml) after 48 h of treatment by 300 nM RA16. The same treatment was performed as the control with the same concentration of SCAP obtained by randomly shuffling the RA16.
Further, CCK-8 assay was used to detect the growth conditions of human non-small cell lung cancer H460 cells and human cervical cancer Hela cells (the concentration of test cells was about 2×10^4/ml) after 48 hours of treatment with different concentrations of nucleic acid aptamer RA16 and SCAP (concentration 0, 5, 10, 50, 100, 150, 200, 300, 400 nM respectively) with randomly srambled RA16, and after three independent experiments, the results are shown in FIG. 2A-B. […]

[3] = tested on: human non-small cell lung cancer cell line H460; experiment: CCK-8 relative viability / proliferation of H460 cells; format: cell-based; conditions: for effect on proliferation of H460 cells: CCK-8, 48 h, 300 nM or 0-400 nM
Procedure: as §1
Further, CCK-8 assay was used to detect the growth conditions of human non-small cell lung cancer H460 cells and human cervical cancer Hela cells (the concentration of test cells was about 2×10^4/ml) after 48 hours of treatment with different concentrations of nucleic acid aptamer RA16 and SCAP (concentration 0, 5, 10, 50, 100, 150, 200, 300, 400 nM respectively) with randomly srambled RA16, and after three independent experiments, the results are shown in FIG. 2A-B.
In order to clarify the effect of the nucleic acid aptamer RA16-EPI adduct on the proliferation of human non-small cell lung cancer cell lines, the inventors used the CCK-8 method to detect the relative viability of human non-small cell lung cancer cell line H460 and other tumor cell lines (human cervical cancer Hela cells) (initial cell concentration was 2×10^4 cells/ml) after 48 h of treatment by 375 nM RA16-EPI.

[4] = tested on: human non-small cell lung cancer H460 transplanted tumor; experiment: RA16 on tumor growth in H460 subcutaneous tumor-bearing mice; format: in vivo; conditions: 2 nmol i.v. on days 0, 3, 5, 7, 9; tumor weighed on day 16
Procedure: In order to clarify the effect of the nucleic acid aptamer RA16 on the growth of human non-small cell lung cancer solid tumors, the inventors used model mice that were injected with human non-small cell lung cancer H460 cells and constructed with a subcutaneous tumor as experimental subjects (initial mean tumor volume was 100 mm^3 or so). They were randomly divided into two groups, each of which had 6 tumor-bearing mice. One group served as a negative control group (0.1 ml of normal saline was injected intravenously on the 0th, 3rd, 5th, 7th, and 9th days respectively); and the other was an RA16 treatment group (2 nmol of RA16 was injected intravenously the 0th, 3rd, 5th, 7th, and 9th days respectively). Every other day, the tumor diameter of the tumor-bearing mice was measured, the tumor volume was calculated, and the tumor growth curves were drawn (FIG. 4). On the 16th day, the tumor was extracted, the tumor was weighed, and the tumor growth inhibition rate was calculated.

[5] = high dose, EPI 1.5 mg/kg/week i.v.
[6] = low dose, EPI 0.5 mg/kg/week i.v.

Molecule	Inhibition Rate (%) of tumor growth [1, 5] [%]	Tumor Weight [1, 5] [g]	Inhibition Rate (%) of tumor growth ([1]; high dose, EPI 1.5 mg/kg/week i.v., listed as EPI) [%]	Inhibition Rate (%) of tumor growth [1, 6] [%]	Tumor Weight [1, 6] [g]	effect on human cervical cancer Hela cells [2]	effect on proliferation of H460 cells [3]	IC50 ([3]; CCK-8, 48 hours, 0-400 nM, read-out: IC50 of inhibition of proliferation of H460 cells) [nM]	Inhibition Rate (%) of tumor growth [4]
COc1cccc2c1C(=O)c1c(O)c3c(c(O)c1C2=O)C[C@@](O)(C(=O)CO)C[C@@H]3O[C@H]1C[C@H](N)[C@@H](O)[C@H](C)O1 [Epirubicin]	47.13	1.97 ± 0.38	47.13	28.76	2.65 ± 0.21	–	–	–	–
B1	–	–	–	–	–	no inhibitory effect; also recorded: no obvious effects; also recorded: no significant effect	obviously inhibit the proliferation	117	54.3% and 54.26%
B2	–	–	–	–	–	–	little effect	–	–
